Data taken from patent US5106976A, “Fused pyrazine sulfoxide derivatives for use as antiulcer agents” (Nippon Chemiphar Co., Ltd., priority 1986, dated 1992).
Like-named read-outs stand apart in the source and are kept apart here.

Key:
[1] = Water-immersion stress-induced erosions (gastric lesion model); type: in vivo, male Donryu rats; conditions: rat, 10 minutes before stressing, 7 hours immersion
Protocol: Two different types of gastric lesion models were induced in male Donryu rats (180 to 240 g) which had been deprived of food but allowed free acess to water for 24 to 48 hours prior to experiments. Rats fasted for 24 hours before experiments were placed in a restraint cage. The animals were immersed vertically to the level of the xiphoid process in a water bath (21° C.) for 7 hours and then killed. The stomach of each rat was removed and inflated by injecting 10 ml of 1% formalin to fix the inner and outer layers of the gastric walls. This formalin treatment was performed in all of the following experiments. Subsequently, the stomach was incised along a greater curvature and examined for any erosion in the glandular portion. Each test compound or a vehicle alone was given orally 10 minutes before stressing.

[2] = system: secretion of gastric acid; assay: Inhibitory action against secretion of gastric acid (pylorus-ligated rats, Shay method); type: in vivo, male Donryu rats; conditions: read-out: Suppressive action against secretion of gastric acid
Protocol: Under ether anesthesia, the pylorus of the rat was ligated and each test compound was administered intraduodenally. Four hours later, each rat was killed and the stomach was removed to collect the gastric juice. The inhibitory action was determined by comparing the acid output which was obtained by titration to pH 7.0 with 0.1-N NaOH by means of an automatic titrator, with the corresponding value of a control rat prepared in the same manner except that a vehicle alone was administered.

[3] = HCl-ethanol-induced erosions (gastric lesion model); type: in vivo, male Donryu rats; conditions: rat, 30 minutes before ethanol treatment
Protocol: Two different types of gastric lesion models were induced in male Donryu rats (180 to 240 g) which had been deprived of food but allowed free acess to water for 24 to 48 hours prior to experiments.
A hydrochloric acid-ethanol solution (150 mM HCl in 60% ethanol) was given orally to rats in a dose of 1 ml/200 g, which rats had been fasted for 24 hours before experiments. One hour later, each animal was killed and the stomach was examined for any erosion in the glandular portion. Each test compound or a vehicle alone was given orally 30 minutes before ethanol treatment.

H^+ +K^+ ATPase = target: T1, H^+ +K^+ ATPase (Oryctolagus cuniculus, UniProt P27112); assay: H+ + K+ ATPase inhibitory effect (vesicles from rabbit gastric mucosa cells); type: biochemical; conditions: 2×10^-4 M test compound, 25 min room temperature preincubation at pH 6.0; reaction pH 7.4, 37° C., 15 min
T1 construct: gastric acid secretory cells of a rabbit gastric mucosa were isolated and vesicle containing H^+ +K^+ ATPase was prepared; from tissue; host or cells: rabbit gastric mucosa, acid secretory cells; vesicles by Ficoll discontinuous density gradient
Protocol: Following the method of Forte et al [J. Applied Physiol., 32, 714-717 (1972)], gastric acid secretory cells of a rabbit gastric mucosa were isolated and vesicle containing H^+ +K^+ ATPase was prepared by centrifuging the cells in Ficoll of discontinuous density gradient. After the enzyme was incubated at room temperature for 25 min. in 0.5 ml of a solution which contained 5 mM of an imidazole buffer (pH 6.0) and 2×10^-4 M of each test compound, the mixture was heated to 37° C. at which it was allowed to stand for further 5 min. To the mixture was added 0.5 ml of a solution which contained 4 mM of magnesium chloride, 80 mM of an imidazole buffer (pH 7.4), 20 mM of potassium chloride and 4 mM of ATP. The resulting mixture was caused to react at 37° C. for 15 min., and 1 ml of a 24% solution of trichloroacetic acid was then added to terminate the reaction. The inorganic phosphorus liberated was quantitatively analyzed by the method proposed by Taussky and Shorr [J. Biol. Chem., 202, 675- 685 (1953)]. The K^+ -dependent activity of the ATPase was determined by subtracting its activity obtained when no potassium chloride was contained. The results are set forth in Table 1 in which Compound Nos. 1-7 are the sulfoxide derivatives prepared in the hereinafter-described Examples 1-7, respectively.

[4] = Rattus norvegicus, intraduodenal, 4 h
[5] = 100 mg/kg intraduodenal, rat, 4 hours

T1 sequence (P27112 whole entry): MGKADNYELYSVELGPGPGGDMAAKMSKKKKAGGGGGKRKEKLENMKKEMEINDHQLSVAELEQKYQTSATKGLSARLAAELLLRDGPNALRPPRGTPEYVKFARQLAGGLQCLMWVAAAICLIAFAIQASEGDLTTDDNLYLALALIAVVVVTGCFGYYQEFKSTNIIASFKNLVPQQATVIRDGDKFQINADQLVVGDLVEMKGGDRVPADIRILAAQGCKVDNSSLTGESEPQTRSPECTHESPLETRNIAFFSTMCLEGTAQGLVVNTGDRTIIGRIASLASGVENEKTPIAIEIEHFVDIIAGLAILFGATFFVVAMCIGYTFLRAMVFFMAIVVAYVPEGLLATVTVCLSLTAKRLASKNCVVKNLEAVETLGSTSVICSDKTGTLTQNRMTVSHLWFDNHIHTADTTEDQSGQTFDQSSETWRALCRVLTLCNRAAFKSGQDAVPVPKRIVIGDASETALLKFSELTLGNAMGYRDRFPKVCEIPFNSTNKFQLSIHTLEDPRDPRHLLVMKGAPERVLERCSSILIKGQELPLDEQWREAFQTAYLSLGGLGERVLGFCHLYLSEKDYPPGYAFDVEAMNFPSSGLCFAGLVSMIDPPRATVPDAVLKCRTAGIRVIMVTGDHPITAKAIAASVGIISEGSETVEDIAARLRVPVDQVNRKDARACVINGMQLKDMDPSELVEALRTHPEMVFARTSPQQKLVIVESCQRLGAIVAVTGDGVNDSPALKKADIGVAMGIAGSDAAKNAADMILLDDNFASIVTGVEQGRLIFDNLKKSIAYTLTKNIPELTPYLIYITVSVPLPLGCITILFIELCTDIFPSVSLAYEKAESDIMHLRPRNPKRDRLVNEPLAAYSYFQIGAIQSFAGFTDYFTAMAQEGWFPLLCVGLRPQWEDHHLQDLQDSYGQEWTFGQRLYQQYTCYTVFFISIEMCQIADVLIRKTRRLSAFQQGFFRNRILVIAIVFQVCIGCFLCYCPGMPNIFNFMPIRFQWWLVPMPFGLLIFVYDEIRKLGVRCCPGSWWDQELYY
T1 sequence (P18597 whole entry partner): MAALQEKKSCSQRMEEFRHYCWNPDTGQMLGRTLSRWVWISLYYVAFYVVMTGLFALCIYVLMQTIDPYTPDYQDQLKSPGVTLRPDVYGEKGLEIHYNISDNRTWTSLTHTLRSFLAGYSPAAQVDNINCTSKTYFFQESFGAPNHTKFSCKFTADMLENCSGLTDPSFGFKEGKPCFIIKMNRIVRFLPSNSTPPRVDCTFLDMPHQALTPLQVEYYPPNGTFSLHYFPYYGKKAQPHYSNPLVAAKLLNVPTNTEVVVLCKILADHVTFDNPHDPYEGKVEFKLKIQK

Structure (SMILES)	inhibition in vivo at 100 mg/kg [2, 5]	inhibition at 200 µM (H^+ +K^+ ATPase)	further results
CNC(=NCCSCc1nc[nH]c1C)NC#N [Cimetidine, N-cyano-N'-methyl-N"-[2-[[(5-methyl-1H-imidazol-4-yl)methyl]thio]-ethyl]guanidine, reference compound]	–	–	Inhibition on Water-Immersion stress-induced erosions ([1]; 60 mg/kg oral): 49%; Inhibition on Water-Immersion stress-induced erosions ([1]; 200 mg/kg oral): 87%; inhibition in vivo at 10 mg/kg [2, 4]: 25.3%; inhibition in vivo at 30 mg/kg [2, 4]: 59.1%; inhibition in vivo at 100 mg/kg [2, 4]: 80.3%
CN(C)c1ccccc1C[S+]([O-])c1nc2ncccc2[nH]1 (stereo not shown) [Compound No. 1, 2-(2-dimethylaminobenzylsulfinyl)imidazo[4,5-b]pyridine]	95.1%	92.3%	Inhibition on Water-Immersion stress-induced erosions ([1]; 30 mg/kg oral): 66%; Inhibition on Water-Immersion stress-induced erosions ([1]; 100 mg/kg oral): 87%; Inhibition on HCl--Ethanol-induced Erosions ([3]; 10 mg/kg oral): 37%; Inhibition on HCl--Ethanol-induced Erosions ([3]; 30 mg/kg oral): 97%; inhibition in vivo at 10 mg/kg ([2]; 10 mg/kg intraduodenal, rat, 4 hours): 53%; inhibition in vivo at 30 mg/kg ([2]; 30 mg/kg intraduodenal, rat, 4 hours): 79%
[O-][S+](Cc1ccccn1)c1cnc2ccccc2n1 (stereo not shown) [Compound No. 2, 2-(2-pyridylmethylsulfinyl)quinoxaline]	54.8%	96.8%	–
Cc1nc2ccccc2nc1[S+]([O-])Cc1ccccn1 (stereo not shown) [Compound No. 3, 3-methyl-2-(2-pyridylmethylsulfinyl)quinoxaline]	54.7%	99.5%	–
Cc1nc2cccnc2nc1[S+]([O-])Cc1ccccn1 (stereo not shown) [Compound No. 4, 2-methyl-3-(2-pyridylmethylsulfinyl)pyrido[2,3-b]pyrazine]	96.7%	89.4%	–
CN(C)c1ccccc1C[S+]([O-])c1cnc2ccccc2n1 (stereo not shown) [Compound No. 5, 2-(2-dimethylaminobenzylsulfinyl)quinoxaline]	55.1%	100%	–
Cc1nc2ccccc2nc1[S+]([O-])Cc1ccccc1N(C)C (stereo not shown) [Compound No. 6, 2-(2-dimethylaminobenzylsulfinyl)-3-methylquinoxaline]	89.6%	100%	–
Cc1cc2nc(C)c([S+]([O-])Cc3ccccc3N(C)C)nc2cc1C (stereo not shown) [Compound No. 7, 2-(2-dimethylaminobenzylsulfinyl)-3,6,7-trimethylquinoxaline]	46.9%	80.8%	–
